Measurements as given in ChEMBL document CHEMBL1799925, “Inhibition of sphingosine 1-phosphate lyase for the treatment of rheumatoid arthritis: discovery of (E)-1-(4-((1R,2S,3R)-1,2,3,4-tetrahydroxybutyl)-1H-imidazol-2-yl)ethanone oxime (LX2931) and (1R,2S,3R)-1-(2-(isoxazol-3-yl)-1H-imidazol-4-yl)butane-1,2,3,4-tetraol (LX2932)” (J Med Chem, 2010).

Tests used:
[1] = Bioavailability in 129/SvEvBrd X C57BL/6 F1 mouse determined from 1 mg/kg, iv and 10 mg/kg, po by LC/MS/MS analysis; type: ADME, organism-based; details: 129/SvEvBrd X C57BL/6 F1, mouse, in vivo
[2] = AUC (0 to infinity) in 129/SvEvBrd X C57BL/6 F1 mouse at 10 mg/kg, po by LC/MS/MS analysis; type: ADME, organism-based, Plasma; parameters: time infinity, dose 10 mg/kg, route oral; details: 129/SvEvBrd X C57BL/6 F1, mouse, plasma
[3] = AUC (0 to infinity) in healthy human at 1 mg/kg, po by LC/MS/MS analysis; type: ADME, organism-based; parameters: time infinity, dose 1 mg/kg, route oral; details: plasma
[4] = Cmax in healthy human at 1 mg/kg, po by LC/MS/MS analysis; type: ADME, organism-based; parameters: dose 1 mg/kg, route oral; details: in vivo
[5] = Cmax in cynomolgus monkey at 30 mg/kg, po by LC/MS/MS analysis; type: ADME, organism-based, Macaca fascicularis; parameters: dose 30 mg/kg, route oral; details: in vivo
Rattus norvegicus [6] = assay: Increase in S1P level in Sprague-Dawley rat jejunum at 30 mg/kg, po administered daily for 3 days measured after 18 hrs […] relative to untreated control; type: functional
[7] = Clearance in 129/SvEvBrd X C57BL/6 F1 mouse at 1 mg/kg, iv by LC/MS/MS analysis; type: ADME, organism-based; parameters: dose 1 mg/kg, route intravenous; details: in vivo
Rattus norvegicus [8] = assay: Increase in S1P level in Sprague-Dawley rat thymus at 30 mg/kg, po administered daily for 3 days measured after 18 hrs […] relative to untreated control; type: functional
[9] = Oral bioavailability in Sprague-Dawley rat determined from 1 mg/kg, iv and 10 mg/kg, po by LC/MS/MS analysis; type: ADME, organism-based; details: in vivo
Homo sapiens [10] = assay: Immunomodulatory activity in arthritic patient assessed as decrease in peripheral lymphocytes at […], po administered as single dose after 48 hrs; type: functional; parameters: scale not given: the % may be the effect or the level left
[11] = Volume of distribution at steady state in 129/SvEvBrd X C57BL/6 F1 mouse at 1 mg/kg, iv by LC/MS/MS analysis; type: ADME, organism-based; parameters: dose 1 mg/kg, route intravenous; details: in vivo, read-out: Vdss
[12] = Cmax in Sprague-Dawley rat at 10 mg/kg, po by LC/MS/MS analysis; type: ADME, organism-based; parameters: dose 10 mg/kg, route oral; details: in vivo
Rattus norvegicus [13] = assay: Increase in S1P level in Sprague-Dawley rat spleen at 30 mg/kg, po administered daily for 3 days measured after 18 hrs […] relative to untreated control; type: functional
Mus musculus [14] = assay: Immunomodulatory activity in 129/SvEvBrd X C57BL/6 F1 mouse assessed as decrease in peripheral blood lymphocyte count at 30 mg/kg, po measured after 18 hrs by complete blood count analysis relative to control; type: ADME, organism-based; parameters: dose 30 mg/kg, route oral; scale not given: the % may be the effect or the level left; details: in vivo
[15] = Cmax in 129/SvEvBrd X C57BL/6 F1 mouse at 10 mg/kg, po by LC/MS/MS analysis; type: ADME, organism-based; parameters: dose 10 mg/kg, route oral; details: in vivo
[16] = AUC (0 to infinity) in Beagle dog at 50 mg/kg, po by LC/MS/MS analysis; type: ADME, organism-based, Canis lupus familiaris; parameters: dose 50 mg/kg, route oral, time infinity; details: plasma
[17] = AUC (0 to infinity) in Sprague-Dawley rat at 10 mg/kg, po by LC/MS/MS analysis; type: ADME, organism-based; parameters: time infinity, dose 10 mg/kg, route oral; details: plasma
[18] = Tmax in Sprague-Dawley rat at 10 mg/kg, po by LC/MS/MS analysis; type: ADME, organism-based; parameters: dose 10 mg/kg, route oral; details: in vivo
[19] = Clearance in Sprague-Dawley rat at 1 mg/kg, iv by LC/MS/MS analysis; type: ADME, organism-based; parameters: dose 1 mg/kg, route intravenous; details: in vivo
[20] = Clearance in Beagle dog at 1 mg/kg, iv by LC/MS/MS analysis; type: ADME, organism-based, Canis lupus familiaris; parameters: dose 1 mg/kg, route intravenous; details: in vivo
[21] = Bioavailability in Beagle dog determined from 1 mg/kg, iv and 50 mg/kg, po by LC/MS/MS analysis; type: ADME, organism-based, Canis lupus familiaris; details: in vivo
[22] = Bioavailability in cynomolgus monkey determined from 1 mg/kg, iv and 30 mg/kg, po by LC/MS/MS analysis; type: ADME, organism-based, Macaca fascicularis; details: in vivo
[23] = Half life in 129/SvEvBrd X C57BL/6 F1 mouse at 10 mg/kg, po by LC/MS/MS analysis; type: ADME, organism-based; parameters: dose 10 mg/kg, route oral; details: in vivo
Mus musculus [24] = assay: Antiarthritic activity in […] collagen-induced arthritic mouse assessed as decrease in circulating T cells at 100 mg/kg, po qd administered one day before collagen challenge; type: functional, T-cell; parameters: scale not given: the % may be the effect or the level left
Cynomolgus monkey [25] = assay: Volume of distribution at steady state in cynomolgus monkey at 30 mg/kg, po by LC/MS/MS analysis; type: ADME, organism-based, Macaca fascicularis; parameters: dose 30 mg/kg, route oral; details: in vivo
[26] = Tmax in Beagle dog at 50 mg/kg, po by LC/MS/MS analysis; type: ADME, organism-based, Canis lupus familiaris; parameters: dose 50 mg/kg, route oral; details: in vivo
Canis familiaris [27] = assay: Volume of distribution at steady state in Beagle dog at 50 mg/kg, po by LC/MS/MS analysis; type: ADME, organism-based, Canis lupus familiaris; parameters: dose 50 mg/kg, route oral; details: in vivo
Rattus norvegicus [28] = assay: Volume of distribution at steady state in Sprague-Dawley rat at 10 mg/kg, po by LC/MS/MS analysis; type: ADME, organism-based; parameters: dose 10 mg/kg, route oral; details: in vivo
Mus musculus [29] = assay: Immunomodulatory activity in mouse assessed as induction of lymphopenia at 30 to 100 mg/kg, po administered as single dose measured after 18 hrs; type: functional; details: dose mg/kg 30-100
Cynomolgus monkey [30] = assay: Cardiotoxicity in cynomolgus monkey assessed as increase in heart rate at 1000 mg/kg, po administered as single dose after 24 hrs by electrocardiogram analysis; type: toxicity, organism-based, Macaca fascicularis; parameters: dose 1000 mg/kg, route oral; details: in vivo
Canis familiaris [31] = assay: Cardiotoxicity in Beagle dog assessed as increase in heart rate at 500 mg/kg, po administered as single dose after 24 hrs by electrocardiogram analysis; type: toxicity, organism-based, Canis lupus familiaris; parameters: dose 500 mg/kg, route oral; details: in vivo
[32] = Cmax in Beagle dog at 50 mg/kg, po by LC/MS/MS analysis; type: ADME, organism-based, Canis lupus familiaris; parameters: dose 50 mg/kg, route oral; details: in vivo
Homo sapiens [33] = assay: Toxicity in arthritic patient assessed as tolerability at […], po administered as single dose; type: organism-based; parameters: route oral; details: in vivo
[34] = Tmax in 129/SvEvBrd X C57BL/6 F1 mouse at 10 mg/kg, po by LC/MS/MS analysis; type: ADME, organism-based; parameters: dose 10 mg/kg, route oral; details: in vivo
[35] = Tmax in healthy human at 1 mg/kg, po by LC/MS/MS analysis; type: ADME, organism-based; parameters: dose 1 mg/kg, route oral; details: in vivo
[36] = AUC (0 to infinity) in cynomolgus monkey at 30 mg/kg, po by LC/MS/MS analysis; type: ADME, organism-based, Macaca fascicularis; parameters: dose 30 mg/kg, route oral, time infinity; details: plasma
[37] = Tmax in cynomolgus monkey at 30 mg/kg, po by LC/MS/MS analysis; type: ADME, organism-based, Macaca fascicularis; parameters: dose 30 mg/kg, route oral; details: in vivo
[38] = Clearance in cynomolgus monkey at 1 mg/kg, iv by LC/MS/MS analysis; type: ADME, organism-based, Macaca fascicularis; parameters: dose 1 mg/kg, route intravenous; details: in vivo

C/C(=N\O)c1nc([C@@H](O)[C@H](O)[C@H](O)CO)c[nH]1.Cl
bioavailability [1]: 6.8% | AUC(0-inf) [2]: 8.8 µM·h | AUC(0-inf) [3]: 19 µM·h | Cmax [4]: 3 µM | Cmax [5]: 16.9 µM | fold change (FC) (Rattus norvegicus [6]): 45 | clearance [7]: 7.6 mL/min/kg | fold change (FC) (Rattus norvegicus [8]): 80 | bioavailability [9]: 26% | Activity (Homo sapiens [10]): 50% | Vd [11]: 0.9 L/kg | Cmax [12]: 2.7 µM | fold change (FC) (Rattus norvegicus [13]): 24 | Activity (Mus musculus [14]): -60% | Cmax [15]: 3.6 µM | AUC(0-inf) [16]: 323 µM·h | AUC(0-inf) [17]: 18.7 µM·h | Tmax [18]: 2 h | clearance [19]: 10.2 mL/min/kg | clearance [20]: 3.5 mL/min/kg | bioavailability [21]: 32.1% | bioavailability [22]: 16.4% | half-life [23]: 1.6 h | Activity (Mus musculus [24]): 40% | Vdss (Cynomolgus monkey [25]): 0.5 L/kg | Tmax [26]: 2 h | Vdss (Canis familiaris [27]): 0.3 L/kg | Vdss (Rattus norvegicus [28]): 0.6 L/kg | Activity (Mus musculus [29]): 40% | Activity (Cynomolgus monkey [30]): Non-toxic | Activity (Canis familiaris [31]): Non-toxic | Cmax [32]: 79.5 µM | Activity (Homo sapiens [33]): Non-toxic | Tmax [34]: 0.45 h | Tmax [35]: 2 h | AUC(0-inf) [36]: 70.1 µM·h | Tmax [37]: 2.3 h | clearance [38]: 4.8 mL/min/kg
